The source of these data is patent US5945561A, “Retinoid-like compounds” (Bristol-Myers Squibb Company, priority 1998, dated 1999).

Assay [1] has as its system HL60 cells. Description: Differentiation and apoptosis of HL60 cells (NBT staining). It is filed as cell-based. Conditions: culture up to 9 days; for EC50 (culture day necessary to convert cells into a differentiated or apoptosed phenotype): HL60 cells, 1 μm compound, NBT staining. The source says: At the end of each day of the culture period, cells were washed and stained with NBT (nitro blue tetrazolium) and counted.

Assay [2] deals with trauma-induced caecal adhesions in female Wistar rat. Kind of assay: Trauma-induced caecal adhesion model in rats (oral treatment once daily for 7 days, examined on seventh postoperative day). It is filed as in vivo. Particulars: 1 × daily for 7 days, N = 5, female Wistar rats; for Mean number of adhesions/rat +/- SD: vehicle (peanut oil) 15.4 +/- 4.8; for Mean Adhesion Severity/Rat +/- SD: vehicle (peanut oil) 39.2 +/- 15. The protocol:
Models of peritoneal adhesions induced by surgical trauma have been used to predict the clinical activity of a number of marketed anti-adhesion barrier devices. One such model is the trauma-induced caecal adhesion model in rats.
Adult female Wistar rats were used in our studies. The trauma induction was carried out using aseptic conditions in animals anesthetized with a mixture of Ketamine (100 mg/kg) and Rompun (10 mg/kg) given IP. A 2 cm midline abdominal incision was made and the caecum was exteriorized. Both sides of the caecum were abraded with a dry gauze until there was evidence of punctate bleeding. After replacing the organ in the abdominal cavity, the incision was closed. Trauma to the caecum produces fibrous scar tissue or adhesions to adjacent organs, peritoneal wall, or the omentum. Animals were treated with test compound orally. Oral treatments were administered once daily for up to 7 days.
On the seventh postoperative day, the animals were sacrificed and the peritoneal cavity was exposed and examined for adhesions. Three criteria that were used to evaluate the adhesions are: severity of the adhesions, extent or area of the ceacum involved with adhesions and the number of adhesions formed in each animal. Statistical analysis of the data was performed using students' T test. The following scoring system was used:
1.0 = easily separable, filmy, non-vascularized adhesions
covering 25% of the caecum;
2.0 = dense adhesions separated by blunt dissection and in-
volving 50% of the caecum;
3.0 = dense, fibrous, vascularized adhesions requiring sharp
dissection and covering 75% of the caecum;
4.0 = severe, dense, vascularized adhesions unable to
separate without tearing the adjacent membranes and
covering greater than 75% of the caecum.
The Dose Dependent Effect of Orally Dosed Test Compound on Trauma-induced Ceacal Adhesions in Female Wistar Rat

As for `CC1(C)CC=C(c2ccccc2)c2cc3cc(-c4ccc(C(=O)O)cc4)ccc3cc21` [Example 1], in assay [1] (1 μm, result in words), the “differentiation and apoptosis of HL60 cells, comparison with t-RA” value is recorded as “comparable to t-RA in this assay”. In addition, the “EC50 (culture day necessary to convert cells into a differentiated or apoptosed phenotype)” value in assay [1] is on record as 6.0 days. Further, the “Mean number of adhesions/rat +/- SD” value in assay [2] (3 mg/kg oral) is 14.6 +/- 2.7; in assay [2] (10 mg/kg oral), 12.2 +/- 1.6; in assay [2] (25 mg/kg oral, * p = 0.03), 6.8 +/- 2.4. Further, the “Mean Adhesion Severity/Rat +/- SD” value is listed as 36 +/- 7.0 in assay [2] (3 mg/kg oral); 30.2 +/- 5.5 in assay [2] (10 mg/kg oral); 14.8 +/- 5.6 in assay [2] (25 mg/kg oral, * p = 0.03).
Regarding `CC1=C(/C=C/C(C)=C/C=C/C(C)=C/C(=O)O)C(C)(C)CCC1` [tRA, all-trans retinoic acid, reference compound], in assay [1], the “EC50 (culture day necessary to convert cells into a differentiated or apoptosed phenotype)” value came out at 3.2 days.
